According to patent publication US20050153947A1, “Methods and reagents for the treatment of diseases and disorders associated with increased levels of proinflammatory cytokines” (priority 2002, published 2005):
Read-outs that look alike come from different tables or passages of the source.

Columns and labels:
TNFα [1] = test: TNFα secretion by stimulated white blood cells, SSRI/corticosteroid combination matrices (Example 4, stimulus not given); format: cell-based; details: Homo sapiens, read-out: percent inhibition of TNFα secretion; for inhibition at 0.003 µM: prednisolone 0.003 μM; for inhibition at 0.006 µM: prednisolone 0.006 μM; for inhibition at 0.05 µM: prednisolone 0.050 μM; for inhibition at 0.1 µM: prednisolone 0.100 μM; for inhibition at 0.2 µM: prednisolone 0.200 μM
TNFα [2] = test: TNFα secretion by white blood cells stimulated with lipopolysaccharide (LPS), ELISA; format: cell-based, human; details: concentration (μM)
Procedure: (§1) Various concentrations of each test compound were added at the time of stimulation. […] After the plate was washed with 0.1% Tween 20/PBS, an HRP-luminescent substrate was added to each well and light intensity measured using a LJL Analyst plate luminometer.
(§2) Single agents were tested for the ability to suppress secretion of IFNγ, IL-1β, IL-2, and TNFα from stimulated white blood cells, and the percent inhibition of cytokine secretion, relative to untreated stimulated white blood cells, was determined.

IL-1β = IL-1β secretion by white blood cells stimulated with lipopolysaccharide, ELISA; format: cell-based, human
Procedure: as §1, §2

TNFα [3] = test: TNFα secretion by white blood cells/PBMC stimulated with phorbol 12-myristate 13-acetate and ionomycin (PI), ELISA; details: concentration (μM)
Procedure: as §1, §2

IL-2 = IL-2 secretion by white blood cells/PBMC stimulated with phorbol 12-myristate 13-acetate and ionomycin (PI), ELISA; details: for percent inhibition of cytokine secretion, IL-2: concentration (μM)
Procedure: as §1, §2

IL-4 = IL-4 secretion, buffy coat assay supernatant, Cytometric 6 Bead Array; details: Homo sapiens, read-out: IL-4 % Inhibition
Procedure: (§3) Analysis of IL-4 and IL-5 cytokine expression was performed using the BD PharMingen Cytometric 6 Bead Array system according to the manufacturer's instructions. Briefly, the supernatant from a buffy coat assay plate wa incubated with the labeled cytokine detection bead cocktail. The samples were then washed, resuspended and read on the BD Pharmingen FACsCalibur flow cytometer. Data was then analyzed using the BD Pharmingen CBA 6 Bead Analysis software.

IL-5 = IL-5 secretion, buffy coat assay supernatant, Cytometric 6 Bead Array; details: Homo sapiens, read-out: IL-5 % Inhibition
Procedure: as §3

[4] = S(+) fluoxetine alone, 58 to 0.028
[5] = Homo sapiens, PBMC, read-out: % Inhibition IL-2 PBMC PI
[6] = norfluoxetine alone, 45.00 to 0.02
[7] = R(+) fluoxetine alone, 58 to 0.028
[8] = fluoxetine concentration (μM), 7.230 to 0.000
[9] = paroxetine concentration (μM), 6.000 to 0.000
[10] = paroxetine alone, 27.00 to 0.03
[11] = fluoxetine alone, 29.00 to 0.01
[12] = citalopram alone, 20.00 to 0.01

Structure (SMILES): C[C@@H]1C[C@H]2[C@@H]3CCC4=CC(=O)C=C[C@]4(C)[C@@]3(F)[C@@H](O)C[C@]2(C)[C@@]1(O)C(=O)CO [Dexamethasone, dexamethasone]
- inhibition at 0.0004 µM (TNFα [1]; dexamethasone 0.0004 μM, paroxetine concentration (μM), 0 to 6.000): 2.1%
- inhibition at 0.0006 µM (TNFα [1]; dexamethasone 0.0006 μM, fluoxetine concentration (μM), 0 to 0.580): -3.8%
- inhibition at 0.0008 µM (TNFα [1]; dexamethasone 0.0008 μM, paroxetine concentration (μM), 0 to 6.000): 6.7%

Structure (SMILES): CNCC[C@H](Oc1ccc(C(F)(F)F)cc1)c1ccccc1 [S(+) Fluoxetine]
- percent inhibition of cytokine secretion, TNFα (LPS) (TNFα [2]; [4]): 0%
- percent inhibition of cytokine secretion, IL-1β (IL-1β; S(+) fluoxetine alone, concentration (μM), 58 to 0.028): 0%
- percent inhibition of cytokine secretion, TNFα (PI) (TNFα [3]; [4]): 0%
- percent inhibition of cytokine secretion, IL-2 (IL-2; [4]): 0%

Structure (SMILES): COCCCC/C(=N\OCCN)c1ccc(C(F)(F)F)cc1 [Fluvoxamine]
- percent inhibition of cytokine secretion, TNFα (LPS) (TNFα [2]; fluvoxamine alone, 63 to 0.031): 0%
- percent inhibition of cytokine secretion, IL-1β (IL-1β; fluvoxamine alone, concentration (μM), 63 to 0.031): 0%
- percent inhibition of cytokine secretion, TNFα (PI) (TNFα [3]; fluvoxamine alone, 63 to 0.031): 0%
- inhibition at 5 µM (IL-2; [5]): 3.6%
- inhibition at 10 µM (IL-2; [5]): 8.1%
- inhibition at 20 µM (IL-2; [5]): 22%

Structure (SMILES): NCCC(Oc1ccc(C(F)(F)F)cc1)c1ccccc1 (stereo not shown) [Norfluoxetine, norfluoxetine]
- percent inhibition of cytokine secretion, TNFα (LPS) (TNFα [2]; [6]): 0%
- percent inhibition of cytokine secretion, IL-1β (IL-1β; norfluoxetine alone, concentration (μM), 45.00 to 0.02): 0%
- percent inhibition of cytokine secretion, TNFα (PI) (TNFα [3]; [6]): 0%
- percent inhibition of cytokine secretion, IL-2 (IL-2; [6]): 0%

Structure (SMILES): CNCC[C@@H](Oc1ccc(C(F)(F)F)cc1)c1ccccc1 [R(+) Fluoxetine]
- percent inhibition of cytokine secretion, TNFα (LPS) (TNFα [2]; [7]): 0%
- percent inhibition of cytokine secretion, IL-1β (IL-1β; R(+) fluoxetine alone, concentration (μM), 58 to 0.028): 0%
- percent inhibition of cytokine secretion, TNFα (PI) (TNFα [3]; [7]): 0%
- percent inhibition of cytokine secretion, IL-2 (IL-2; [7]): 0%

Structure (SMILES): CCCC1O[C@@H]2C[C@H]3[C@@H]4CCC5=CC(=O)C=C[C@]5(C)[C@H]4[C@@H](O)C[C@]3(C)[C@]2(C(=O)CO)O1 (stereo partly shown) [Budesonide, budesonide]
- inhibition at 0.0005 µM (TNFα [1]; budesonide 0.0005 μM, fluoxetine concentration (μM), 0 to 0.580): -2.4%
- inhibition at 0.002 µM (TNFα [1]; budesonide 0.002 μM, fluoxetine concentration (μM), 0 to 0.580): -8.9%
- inhibition at 0.009 µM (TNFα [1]; budesonide 0.009 μM, fluoxetine concentration (μM), 0 to 0.580): 5.3%

Structure (SMILES): C[C@]12C=CC(=O)C=C1CC[C@@H]1[C@@H]2[C@@H](O)C[C@@]2(C)[C@H]1CC[C@]2(O)C(=O)CO [Prednisolone, prednisolone]
- inhibition at 0.5 µM (TNFα [1]; Prednisolone 0.500 μM alone): 29.1%
- inhibition at 1 µM (TNFα [1]; Prednisolone 1.0000 μM alone): 34%
- inhibition at 0.0008 µM (TNFα [1]; prednisolone 0.0008 μM, fluoxetine concentration (μM), 7.230 to 0.000): 3.8%
- inhibition at 0.003 µM (TNFα [1]; [8]): 4.4%
- inhibition at 0.003 µM (TNFα [1]; [9]): -0.1%
- inhibition at 0.006 µM (TNFα [1]; [8]): 7%
- inhibition at 0.006 µM (TNFα [1]; [9]): 4.6%
- inhibition at 0.05 µM (TNFα [1]; [8]): 24.3%
- inhibition at 0.05 µM (TNFα [1]; [9]): 23.4%
- inhibition at 0.1 µM (TNFα [1]; [8]): 31.6%
- inhibition at 0.1 µM (TNFα [1]; [9]): 29.4%
- inhibition at 0.2 µM (TNFα [1]; [8]): 39.7%
- inhibition at 0.2 µM (TNFα [1]; [9]): 34.1%
- inhibition at 0.4 µM (TNFα [1]; prednisolone 0.400 μM, paroxetine concentration (μM), 6.000 to 0.000): 36.2%
- inhibition at 0.5 µM (TNFα [1]; prednisolone 0.500 μM, fluoxetine concentration (μM), 0 to 29.00): 39%
- inhibition at 0.5 µM (TNFα [1]; prednisolone 0.500 μM, paroxetine concentration (μM), 0 to 27.00): 35.4%
- inhibition at 1 µM (TNFα [1]; prednisolone 1.0000 μM, fluoxetine concentration (μM), 0 to 29.00): 35.1%
- inhibition at 1 µM (TNFα [1]; prednisolone 1.0000 μM, paroxetine concentration (μM), 0 to 27.00): 38.6%
- inhibition at 1 µM (IL-4): 47.8%
- inhibition at 1 µM (IL-5): 75.5%

Structure (SMILES): Fc1ccc([C@@H]2CCNC[C@H]2COc2ccc3c(c2)OCO3)cc1 [Paroxetine]
- percent inhibition of cytokine secretion, TNFα (LPS) (TNFα [2]; [10]): 0%
- percent inhibition of cytokine secretion, IL-1β (IL-1β; paroxetine alone, concentration (μM) in c4 of the same row, 53.00 to 0.05): 0%
- inhibition at 28 µM (IL-4): 97.1%
- inhibition at 28 µM (IL-5): 97.8%
- percent inhibition of cytokine secretion, TNFα (PI) (TNFα [3]; [10]): 0%
- inhibition at 18 µM (IL-2; [5]): 54.2%
- inhibition at 36 µM (IL-2; [5]): 83.5%
- inhibition at 72 µM (IL-2; [5]): 95.7%
- percent inhibition of cytokine secretion, IL-2 (IL-2; [10]): 0%

Structure (SMILES): COc1ccc(C(CN(C)C)C2(O)CCCCC2)cc1 (stereo not shown) [Venlafaxine]
- percent inhibition of cytokine secretion, TNFα (LPS) (TNFα [2]; venlafaxine alone, 39.83 to 0.02): 3.33%

Structure (SMILES): CNCCC(Oc1ccc(C(F)(F)F)cc1)c1ccccc1 (stereo not shown) [Fluoxetine]
- percent inhibition of cytokine secretion, TNFα (LPS) (TNFα [2]; [11]): 0%
- percent inhibition of cytokine secretion, IL-1β (IL-1β; fluoxetine alone, concentration (μM), 29.00 to 0.01): 0%
- percent inhibition of cytokine secretion, TNFα (PI) (TNFα [3]; [11]): 6%
- inhibition at 10 µM (IL-2; [5]): 16.1%
- inhibition at 21 µM (IL-2; [5]): 47.4%
- inhibition at 42 µM (IL-2; [5]): 90.3%
- inhibition at 84 µM (IL-2; [5]): 103%
- percent inhibition of cytokine secretion, IL-2 (IL-2; [11]): 0%

Structure (SMILES): CN(C)CCCC1(c2ccc(F)cc2)OCc2cc(C#N)ccc21 (stereo not shown) [Citalopram]
- percent inhibition of cytokine secretion, TNFα (PI) (TNFα [3]; [12]): 0%
- percent inhibition of cytokine secretion, IL-2 (IL-2; [12]): 0%
